Assay results from PubChem BioAssay AID1963983 (Molecular Pharmacology Branch, DTP, NCI, 2024).
pIC50: −log10 of the molar value.

Test system: 186277-243-T-J2-PDC multi-cell spheroid viability
Assay: Anticancer human tumor 186277-243-T-J2-PDC patient-derived colon adenocarcinoma cell line growth inhibition [PI3K]
Settings: for viability, T/C: stronger effect = lower value
How it was run: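 Combination activity was assessed by viability in multicellular tumor spheroids carrying HUVEC and MSC components. Agents were tested with PI3K inhibitors from a Cmax-based top dose (or 10 microM) downward in half-log increments.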

[1] = curve of first compound, second compound 0.0316 µM
[2] = curve of first compound, second compound 0.1 µM
[3] = curve of first compound, second compound 0.316 µM
[4] = curve of first compound, second compound 1 µM
[5] = curve of first compound, second compound 3.16 µM
[6] = curve of first compound, second compound 10 µM
[7] = second compound 0.0316 µM, first compound 0.0316 µM
[8] = second compound 0.0316 µM, first compound 0.1 µM
[9] = second compound 0.1 µM, first compound 0.0316 µM
[10] = second compound 0.1 µM, first compound 0.1 µM
[11] = second compound 0.316 µM, first compound 0.0316 µM
[12] = second compound 0.316 µM, first compound 0.1 µM
[13] = second compound 1 µM, first compound 0.0316 µM
[14] = second compound 1 µM, first compound 0.1 µM
[15] = second compound 3.16 µM, first compound 0.0316 µM
[16] = second compound 3.16 µM, first compound 0.1 µM
[17] = second compound 10 µM, first compound 0.0316 µM
[18] = second compound 10 µM, first compound 0.1 µM
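Also: spheroids exposed to compounds for seven days before viability reading.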
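For viability, T/C in this document: 100% = DMSO vehicle control viability.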

Question: What does the source list for `CC(=O)c1c(C)c2cnc(Nc3ccc(N4CCNCC4)cn3)nc2n(C2CCCC2)c1=O` + Cc1nc(NC(=O)N2CCCC2C(N)=O)sc1-c1ccnc(C(C)(C)C(F)(F)F)c1?
Answer: pIC50 [1]: < 7.00; pIC50 [2]: < 7.00; pIC50 [3]: < 7.00; pIC50 [4]: < 7.00; pIC50 [5]: 7.72; pIC50 [6]: > 9.50; viability, T/C (second compound 0.0316 µM, first compound 0.000316 µM): 96.5%; viability, T/C (second compound 0.0316 µM, first compound 0.001 µM): 95%; viability, T/C (second compound 0.0316 µM, first compound 0.00316 µM): 96%; viability, T/C (second compound 0.0316 µM, first compound 0.01 µM): 114%; viability, T/C [7]: 123%; viability, T/C [8]: 138%; viability, T/C (second compound 0.1 µM, first compound 0.000316 µM): 97.7%; viability, T/C (second compound 0.1 µM, first compound 0.001 µM): 106%; viability, T/C (second compound 0.1 µM, first compound 0.00316 µM): 104%; viability, T/C (second compound 0.1 µM, first compound 0.01 µM): 109%; viability, T/C [9]: 136%; viability, T/C [10]: 135%; viability, T/C (second compound 0.316 µM, first compound 0.000316 µM): 101%; viability, T/C (second compound 0.316 µM, first compound 0.001 µM): 113%; viability, T/C (second compound 0.316 µM, first compound 0.00316 µM): 109%; viability, T/C (second compound 0.316 µM, first compound 0.01 µM): 101%; viability, T/C [11]: 124%; viability, T/C [12]: 126%; viability, T/C (second compound 1 µM, first compound 0.000316 µM): 104%; viability, T/C (second compound 1 µM, first compound 0.001 µM): 102%; viability, T/C (second compound 1 µM, first compound 0.00316 µM): 99.5%; viability, T/C (second compound 1 µM, first compound 0.01 µM): 107%; viability, T/C [13]: 94.3%; viability, T/C [14]: 83.6%; viability, T/C (second compound 3.16 µM, first compound 0.000316 µM): 58.7%; viability, T/C (second compound 3.16 µM, first compound 0.001 µM): 53.6%; viability, T/C (second compound 3.16 µM, first compound 0.00316 µM): 59.2%; viability, T/C (second compound 3.16 µM, first compound 0.01 µM): 53.3%; viability, T/C [15]: 46.1%; viability, T/C [16]: 37.4%; viability, T/C (second compound 10 µM, first compound 0.000316 µM): 20.9%; viability, T/C (second compound 10 µM, first compound 0.001 µM): 12.4%; viability, T/C (second compound 10 µM, first compound 0.00316 µM): 13.7%; viability, T/C (second compound 10 µM, first compound 0.01 µM): 11.6%; viability, T/C [17]: 15.4%; viability, T/C [18]: 10.5%

Question: What does the source list for `CC1(C)CCC(Nc2ncc(C(F)(F)F)c(-c3c[nH]c4c(P(C)(C)=O)c(C#N)ccc34)n2)CN1` (stereo not drawn) + Cc1nc(NC(=O)N2CCCC2C(N)=O)sc1-c1ccnc(C(C)(C)C(F)(F)F)c1?
Answer: pIC50 [1]: 5.45; pIC50 [2]: 5.39; pIC50 [3]: 5.64; pIC50 [4]: 6.27; pIC50 [5]: > 7.50; pIC50 [6]: > 7.50; viability, T/C [7]: 76.1%; viability, T/C [8]: 55.9%; viability, T/C (second compound 0.0316 µM, first compound 0.316 µM): 57.9%; viability, T/C (second compound 0.0316 µM, first compound 1 µM): 61.4%; viability, T/C (second compound 0.0316 µM, first compound 3.16 µM): 55.8%; viability, T/C (second compound 0.0316 µM, first compound 10 µM): 0.33%; viability, T/C [9]: 81.5%; viability, T/C [10]: 54.2%; viability, T/C (second compound 0.1 µM, first compound 0.316 µM): 56.7%; viability, T/C (second compound 0.1 µM, first compound 1 µM): 59%; viability, T/C (second compound 0.1 µM, first compound 3.16 µM): 65%; viability, T/C (second compound 0.1 µM, first compound 10 µM): 0.22%; viability, T/C [11]: 77%; viability, T/C [12]: 65.4%; viability, T/C (second compound 0.316 µM, first compound 0.316 µM): 55.4%; viability, T/C (second compound 0.316 µM, first compound 1 µM): 60.7%; viability, T/C (second compound 0.316 µM, first compound 3.16 µM): 48.7%; viability, T/C (second compound 0.316 µM, first compound 10 µM): 0.44%; viability, T/C [13]: 63.4%; viability, T/C [14]: 57.9%; viability, T/C (second compound 1 µM, first compound 0.316 µM): 49.5%; viability, T/C (second compound 1 µM, first compound 1 µM): 49.2%; viability, T/C (second compound 1 µM, first compound 3.16 µM): 28.3%; viability, T/C (second compound 1 µM, first compound 10 µM): 0.27%; viability, T/C [15]: 31%; viability, T/C [16]: 34.3%; viability, T/C (second compound 3.16 µM, first compound 0.316 µM): 21.6%; viability, T/C (second compound 3.16 µM, first compound 1 µM): 29.4%; viability, T/C (second compound 3.16 µM, first compound 3.16 µM): 8.8%; viability, T/C (second compound 3.16 µM, first compound 10 µM): 0.65%; viability, T/C [17]: 7.49%; viability, T/C [18]: 7.95%; viability, T/C (second compound 10 µM, first compound 0.316 µM): 8.74%; viability, T/C (second compound 10 µM, first compound 1 µM): 4.41%; viability, T/C (second compound 10 µM, first compound 3.16 µM): 5.08%; viability, T/C (second compound 10 µM, first compound 10 µM): 1.35%

Question: What does the source list for `Cn1cnc2c(F)c(Nc3ccc(Br)cc3Cl)c(C(=O)NOCCO)cc21` + CC(Nc1ncnc2nc[nH]c12)c1cc2cccc(Cl)c2c(=O)n1-c1ccccc1?
Answer: pIC50 [1]: 6.76; pIC50 [2]: 6.79; pIC50 [3]: 6.83; pIC50 [4]: 6.94; pIC50 [5]: 7.20; pIC50 [6]: 7.64; viability, T/C (second compound 0.0316 µM, first compound 0.00949 µM): 93%; viability, T/C (second compound 0.0316 µM, first compound 0.03 µM): 91.3%; viability, T/C (second compound 0.0316 µM, first compound 0.0949 µM): 58.8%; viability, T/C (second compound 0.0316 µM, first compound 0.3 µM): 38.9%; viability, T/C (second compound 0.0316 µM, first compound 0.949 µM): 23.3%; viability, T/C (second compound 0.0316 µM, first compound 3 µM): 10.3%; viability, T/C (second compound 0.1 µM, first compound 0.00949 µM): 115%; viability, T/C (second compound 0.1 µM, first compound 0.03 µM): 92.3%; viability, T/C (second compound 0.1 µM, first compound 0.0949 µM): 56.4%; viability, T/C (second compound 0.1 µM, first compound 0.3 µM): 40.1%; viability, T/C (second compound 0.1 µM, first compound 0.949 µM): 22.2%; viability, T/C (second compound 0.1 µM, first compound 3 µM): 12%; viability, T/C (second compound 0.316 µM, first compound 0.00949 µM): 91.1%; viability, T/C (second compound 0.316 µM, first compound 0.03 µM): 82.4%; viability, T/C (second compound 0.316 µM, first compound 0.0949 µM): 57.4%; viability, T/C (second compound 0.316 µM, first compound 0.3 µM): 37.5%; viability, T/C (second compound 0.316 µM, first compound 0.949 µM): 15.3%; viability, T/C (second compound 0.316 µM, first compound 3 µM): 12.5%; viability, T/C (second compound 1 µM, first compound 0.00949 µM): 112%; viability, T/C (second compound 1 µM, first compound 0.03 µM): 82.5%; viability, T/C (second compound 1 µM, first compound 0.0949 µM): 49.7%; viability, T/C (second compound 1 µM, first compound 0.3 µM): 35.1%; viability, T/C (second compound 1 µM, first compound 0.949 µM): 19.5%; viability, T/C (second compound 1 µM, first compound 3 µM): 9.14%; viability, T/C (second compound 3.16 µM, first compound 0.00949 µM): 104%; viability, T/C (second compound 3.16 µM, first compound 0.03 µM): 64.1%; viability, T/C (second compound 3.16 µM, first compound 0.0949 µM): 39.9%; viability, T/C (second compound 3.16 µM, first compound 0.3 µM): 28.5%; viability, T/C (second compound 3.16 µM, first compound 0.949 µM): 18.3%; viability, T/C (second compound 3.16 µM, first compound 3 µM): 7.22%; viability, T/C (second compound 10 µM, first compound 0.00949 µM): 75.7%; viability, T/C (second compound 10 µM, first compound 0.03 µM): 41.1%; viability, T/C (second compound 10 µM, first compound 0.0949 µM): 25.4%; viability, T/C (second compound 10 µM, first compound 0.3 µM): 14.1%; viability, T/C (second compound 10 µM, first compound 0.949 µM): 8.69%; viability, T/C (second compound 10 µM, first compound 3 µM): 5.17%

Question: Which viability, T/C (compound 0.0316 µM) does the source give for `C=CC(=O)N1CCN(c2nc(=O)n(-c3c(C)ccnc3C(C)C)c3nc(-c4c(O)cccc4F)c(F)cc23)C(C)C1` (stereo not drawn) here?
Answer: Its viability, T/C is 98.1% [middle of 4 runs].

Question: What about the viability, T/C (compound 0.1 µM) of the same compound?
Answer: The viability, T/C was 92.8% [middle of 4 runs].

Question: And the viability, T/C (compound 0.316 µM)?
Answer: The viability, T/C was 98% [middle of 4 runs].

Question: What about the viability, T/C (compound 1 µM) of the same compound?
Answer: Its viability, T/C is 102% [middle of 4 runs].

Question: What about the viability, T/C (compound 3.16 µM) of the same compound?
Answer: Its viability, T/C is 108% [middle of 4 runs].

Question: What about the viability, T/C (compound 10 µM) of the same compound?
Answer: Its viability, T/C is 90.6% [middle of 4 runs].

Question: And the pIC50 (curve of compound)?
Answer: Its pIC50 is < 5.00.
